Earlier results, collected in patent publication US20140080845A1, “USE OF ALLOPURINOL FOR THE TREATMENT OF HAND FOOT SKIN REACTION” (NOBERA PHARMA, S.L., priority 2009, published 2014).
Where two headings read alike, the source gives them in different places.

Legend:
[1] = meta-analysis, treated patients

| Structure (SMILES) | solubility (in chloroform and in ether) | solubility (in dilute solutions of alkali hydroxides) | solubility (in water and alcohol) | summary incidence of HFSR, grade 3 [1] [%] | summary incidence of HFSR, grades 1-3 [1] [%] |
| --- | --- | --- | --- | --- | --- |
| Oc1ncnc2[nH]ncc12 [Allopurinol, 1H-pyrazolo[3,4-d] pyrimidin-4-ol] | practically insoluble | dissolves | very slightly soluble | – | – |
| CNC(=O)c1cc(Oc2ccc(NC(=O)Nc3ccc(Cl)c(C(F)(F)F)c3)cc2)ccn1 [sorafenib] | – | – | – | 8.9 | 33.8 |
| CCN(CC)CCNC(=O)c1c(C)[nH]c(/C=C2\C(=O)Nc3ccc(F)cc32)c1C [sunitinib] | – | – | – | 5.5 | 18.9 |
